We go through 17 molecules from ChEMBL document CHEMBL5500324, “The potential of marine-derived piperazine alkaloids: Sources, structures and bioactivities” (Eur J Med Chem, 2024).

Assay type in all cases: functional, cell-based
One test relates to HEK293. Nature of the test: Cytotoxicity against HEK293 cells assessed as cell growth inhibition. As to conditions: Homo sapiens.
The next test deals with NCI-H460. As to the kind of experiment: Cytotoxicity against human NCI-H460 cells assessed as reduction in cell growth incubated for 48 hrs by SRB assay. The conditions noted are these: NCI-H460, 48 h. A general note: In SRB staining, fixed cells bind dye roughly in proportion to their protein.
In test [1] the test system is MCF7. As to the kind of experiment: Cytotoxicity against human MCF7 cells assessed as reduction in cell growth incubated for 48 hrs by SRB assay. As to conditions: MCF7, 48 h.
Another test has as its system RKO. As to the kind of experiment: Cytotoxicity against human RKO cells assessed as inhibition of cell growth measured after 48 hrs by MTT assay. (Tetrazolium dyes change colour on reduction, which living cells bring about.)
Test [2] concerns HCT-116. As to the kind of experiment: Cytotoxicity against human HCT-116 cells assessed as reduction in cell viability incubated for 24 hrs by MTT assay. The conditions noted are these: HCT-116, 24 h.
In test [3] the test system is HepG2. Nature of the test: Cytotoxicity against human HepG2 cells assessed as reduction in cell growth incubated for 48 hrs by SRB assay. The conditions noted are these: HepG2, 48 h.
Another test deals with SF-268. Nature of the test: Cytotoxicity against human SF-268 cells assessed as reduction in cell growth incubated for 48 hrs by SRB assay. The conditions noted are these: SF-268, 48 h.
The next test has as its system U-937. As to the kind of experiment: Cytotoxicity against human U-937 cells assessed as reduction in cell growth incubated for 48 hrs by CCK-8 assay. As to conditions: U-937, 48 h.
The subject of the next test is PC-3. Nature of the test: Cytotoxicity against human PC-3 cells assessed as reduction in cell growth incubated for 48 hrs by CCK-8 assay. The conditions noted are these: PC-3, 48 h.
The subject of a further test is Bel-7402. Nature of the test: Cytotoxicity against human Bel-7402 cells assessed as reduction in cell growth incubated for 72 hrs measured by MTT assay. As to conditions: Bel-7402, 72 h.
A further test relates to L1210. As to the kind of experiment: Cytotoxicity against mouse L1210 assessed as cell growth inhibition.
Test [4] deals with HeLa. As to the kind of experiment: Cytotoxicity against human HeLa cells assessed as cell growth inhibition.
The test system of another test is HL-60. As to the kind of experiment: Cytotoxicity against human HL-60 cells assessed as cell growth inhibition by MTT assay.
For test [5], the system named is A549. As to the kind of experiment: Cytotoxicity against human A549 cells assessed as reduction in cell growth by MTT assay.
A further test has as its system NCI-H1975. Nature of the test: Cytotoxicity against human NCI-H1975 cells assessed as cell growth inhibition by MTT assay.
Test [6] deals with HCT-116. Nature of the test: Cytotoxicity against human HCT-116 cells assessed as reduction in cell growth by MTT assay.
A further test has as its system K562. As to the kind of experiment: Cytotoxicity against human K562 cells assessed as cell growth inhibition by MTT assay.
The next test has as its system DU-145. As to the kind of experiment: Cytotoxicity against human DU-145 cells assessed as cell growth inhibition measured after 48 hrs by MTT assay. As to conditions: DU-145, 48 h.
Test [7] relates to HCT-116. As to the kind of experiment: Antiproliferative activity against human HCT-116 cells assessed as reduction in cell viability incubated for 24 hrs by MTT assay. As to conditions: HCT-116, 24 h.
Another test relates to QG-56. Nature of the test: Cytotoxicity against human QG-56 cells assessed as reduction in cell growth incubated for 24 hrs by MTT assay. The conditions noted are these: QG-56, 24 h.
Test [8] deals with HepG2. Nature of the test: Antiproliferative activity against human HepG2 cells assessed as reduction in cell viability by CCK-8 assay.
Test [9] in a line: Cytotoxicity against human AML1 cells expressing FLT3-ITD mutant assessed as cell viability.
Another test deals with AGS. As to the kind of experiment: Antiproliferative activity against human AGS cells assessed as reduction in cell viability measured for 48 hrs by Cell-Titer Glo assay.
Test [10] relates to MCF7. Nature of the test: Antiproliferative activity against human MCF7 cells assessed as reduction in cell viability incubated for 72 hrs by MTT assay. The conditions noted are these: MCF7, 72 h.
Test [11] relates to HCT-116. Nature of the test: Antiproliferative activity against human HCT-116 cells assessed as reduction in cell growth.
In test [12] the test system is A549. Nature of the test: Antiproliferative activity against human A549 cells assessed as reduction in cell viability incubated for 72 hrs by CCK-8 assay. The conditions noted are these: A549, 72 h.
For test [13], the system named is HeLa. Nature of the test: Cytotoxicity against human HeLa cells assessed as reduction in cell viability incubated for 24 hrs by CCK-8 assay.
Test [14] relates to A549. Nature of the test: Cytotoxicity against human A549 cells assessed as reduction in cell viability incubated for 24 hrs by CCK-8 assay. The conditions noted are these: A549, 24 h.
In test [15] the test system is A549. As to the kind of experiment: Cytotoxicity against human A549 cells assessed as reduction in cell viability incubated for 48 hrs by MTT assay. The conditions noted are these: A549, 48 h.
Test [16] deals with HCT-116. As to the kind of experiment: Cytotoxicity against human HCT-116 cells assessed as reduction in cell viability incubated for 48 hrs by MTT assay. The conditions noted are these: HCT-116, 48 h.

≈ marks a conversion by molar mass, not a printed value.

By IC50 is commonly meant the concentration that inhibits the measured activity by half. As to `C=c1c(=O)n2c(cc3ccccc32)c(=O)n1C`, the concentration for half-maximal inhibition (IC50) turned out to be 30.1 µM with HEK293; 12.3 µM in the test with NCI-H460; 4.67 µM with MCF7 [1]; 33.6 µM in the test with RKO; 10.3 µM in the test on HCT-116 [2]; 2.29 µM in the test with HepG2 [3]. Moreover, in the test on SF-268, the IC50 amounted to 3.3 µM.
For the molecule `COc1ccc2c3c(n(CC=C(C)C)c2c1)[C@H](C=C(C)C)N1C(=O)[C@@H]2CCCN2C(=O)[C@@]1(O)[C@H]3OC`, the half-maximal inhibitory concentration (IC50) with U-937 was 25.3 µM; in the test on PC-3, 98.7 µM.
Consider `C[C@H]1CCN2C[C@]34CC5(C(=O)Nc6c5ccc5c6OC=CC(C)(C)O5)C(C)(C)[C@@H]3C[C@]12C(=O)N4C` (stereo partly drawn), for which the IC50 in the test with Bel-7402 was 1.9 µM.
With `C=CC(C)(C)[C@]1(C[C@H]2NC(=O)[C@H]3CCCN3C2=O)C(=O)Nc2c1ccc1c2C=CC(C)(C)O1`, the half-maximal inhibitory concentration (IC50) in the test with L1210 was determined as 22 µg/mL (≈ 48.9 µM); with HeLa [4], 50 µg/mL (≈ 111 µM).
`COc1ccc2c3c(n(CC=C(C)C)c2c1)[C@H](C=C(C)C)N1C(=O)[C@@H]2CCCN2C(=O)[C@]1(O)[C@H]3O`: the half-maximal inhibitory concentration (IC50) in the test with U-937 came to 14.1 µM; in the test with PC-3, 43.4 µM.
Consider `CN1C(=O)[C@]23SSS[C@]1(C)C(=O)N2[C@@H]1Nc2ccccc2C1(C12c4ccccc4N[C@@H]1N1C(=O)[C@@]4(CO)SSS[C@]1(C(=O)N4C)[C@H]2O)[C@@H]3O` (stereo partly drawn), for which the IC50 in the test with HL-60 worked out at 1.9 µM; with A549 [5] it was 0.4 µM; in the test with NCI-H1975, 0.2 µM; with HCT-116 [6], 0.4 µM; with K562 it was 0.4 µM.
For the molecule `COC1=C(C)C(=O)C2=C(C1=O)[C@H](CO)N1[C@@H](C#N)[C@@H]3[C@@H](O)c4c(O)c(C)c(OC)c(O)c4[C@H]([C@@H]1C2)N3C`, the IC50 with DU-145 was 0.448 µM; in the test on HCT-116 [7], 0.455 µM; in the test on QG-56 it was 0.618 µM.
As for `C[C@H]1CCN2C[C@]34CC5(C(=O)Nc6c5cc(O)c5c6OC=CC(C)(C)O5)C(C)(C)[C@@H]3C[C@]12C(=O)N4C` (stereo partly drawn), the half-inhibitory concentration (IC50) in the test with Bel-7402 came to 3.3 µM.
Turning to `CS[C@@]12CC3=CC=C[C@H](OC(C)=O)[C@H]3N1C(=O)[C@]1(SC)CC3=CC=C[C@H](OC(C)=O)[C@H]3N1C2=O`, the IC50 in the test on HepG2 [8] stood at 42 µg/mL (≈ 83.6 µM).
For the molecule `CC(C)=CCc1[nH]cnc1/C=C1\NC(=O)CNC1=O`, the IC50 in test [9] amounted to 0.22 µM.
Consider `CC1(C)C=Cc2c(ccc3c2N(O)C(=O)[C@@]32C[C@@]34NC(=O)[C@]5(CCCN5C3=O)C[C@H]4C2(C)C)O1`, for which the values for the IC50 with L1210 and in the test on HeLa [4] were 29 µg/mL (≈ 62.6 µM) and 27 µg/mL (≈ 58.2 µM), respectively.
Turning to `CC(=O)O[C@H]1C=CC=C2C[C@@]34SS[C@]5(CC6=COC=C[C@H](OC(C)=O)[C@H]6N5C3=O)C(=O)N4[C@@H]21`, the half-maximal inhibitory concentration (IC50) came out at 12 µM with AGS, 10 µM in the test on MCF7 [10], 13.8 µM with HCT-116 [11] and 12 µM in the test with A549 [12].
For `CC[C@H](C)[C@]1(O)NC(=O)[C@@H](Cc2ccccc2)N2C(=O)C3=C(NC21)OC=CC=C3` (stereo partly drawn), the figures for the IC50 with HeLa [13] and in the test with A549 [14] were 114 µM and 61 µM, respectively.
Regarding `CN1C(=O)[C@]23SSS[C@]1(CO)C(=O)N2[C@H]1Nc2ccccc2C1(C12c4ccccc4N[C@H]1N1C(=O)[C@@]4(CO)SSSS[C@]1(C(=O)N4C)[C@H]2O)[C@@H]3O` (stereo partly drawn), the half-maximal inhibitory concentration (IC50) in the test on HL-60 is 1.9 µM; with A549 [5], 1.9 µM; in the test with NCI-H1975, 3.6 µM; in the test on HCT-116 [6] it was 2.1 µM; with K562 it was 1.9 µM.
On to `CC(C)C[C@H]1NC(=O)[C@@H](Cc2ccc3c(c2)OCO3)NC1=O`, for which the IC50 in the test with A549 [15] turned out to be 28.4 µg/mL (≈ 93.3 µM); in the test on HCT-116 [16] it was 45.4 µg/mL (≈ 149 µM).
Consider `CC1(C)C=Cc2c(ccc3c2NC(=O)[C@@]32C[C@@]34NC(=O)[C@]5(CCCN5C3=O)C[C@H]4C2(C)C)O1` [NOTOAMIDE B], for which the IC50 worked out at 36 µg/mL (≈ 80.4 µM) with L1210 and 52 µg/mL (≈ 116 µM) in the test on HeLa [4].
As to `CC1(C)C=Cc2c(ccc3c2N[C@@]24N5C(=O)[C@]6(O)CCCN6C(=O)[C@]5(O)C[C@@]32O[C@H](CO)C4(C)C)O1`, the 50% inhibitory concentration (IC50) in test [9] worked out at 10 µM.
